Measured values taken from patent US9872874B2 (Cyclacel Limited, priority 2012, dated 2018).

Legend:
[1] = Phase I study of sequential sapacitabine and seliciclib, Schedule 2: dose escalation, MTD, DLT and adverse events; type: in vivo; conditions: Schedule 2: sapacitabine b.i.d. days 1-7, seliciclib b.i.d. days 8-10, 11 days of rest; 27 patients
Experimental: Phase I Study of Sequential Sapacitabine and Seliciclib in Patients with Advanced Solid Tumors
(§1) At least 3 patients were evaluated per dose level.

H2AX staining = assay: Skin biopsies to assess DNA damage (H2AX staining) in the Phase I study; type: in vivo, patients
Experimental: as §1

A549 cells = conditions: twenty-four hour treatment; cited from earlier work
colon cancer = conditions: model of colon cancer, compared with gemcitabine or 5-FU; cited from earlier work
[2] = phase I, single agent; cited from earlier work

| SMILES | MTD and recommended phase II dose (RP2D) [1] [mg b.i.d.] | further increase in H2AX staining post-seliciclib (H2AX staining; day 11 vs day 8, n=12, P=0.069) [fold] | expression of key genes involved in HR (BRCA1 and RAD50) and NHEJ (Ku80, DNA-PK and NHEJ1) (A549 cells) | increasing survival and preventing spread of colon cancer metastases to the liver (colon cancer) | increase in H2AX staining post-sapacitabine (H2AX staining; day 8 vs pre-treatment, n=16, P=0.007) [fold] | dose limiting toxicity [2] | tolerability in humans [2] |
| --- | --- | --- | --- | --- | --- | --- | --- |
| CC[C@H](CO)Nc1nc(NCc2ccccc2)c2ncn(C(C)C)c2n1 [seliciclib, 6-benzylamino-2-[(R)-1-ethyl-2-hydroxyethylamino]-9-isopropylpurine] | 1200 | 0.58 | significant downregulation |  |  |  |  |
| CCCCCCCCCCCCCCCC(=O)Nc1ccn(C2O[C@H](CO)[C@@H](O)[C@@H]2C#N)c(=O)n1 (stereo partly drawn) [sapacitabine, 1-(2-C-cyano-2-dioxy-β-D-arabino-pentofuranosyl)-N^4-palmitoyl cytosine] | 50 |  |  | superior to either gemcitabine or 5-FU | 2.3 | myelosuppression | well tolerated |
